Results taken from ChEMBL document CHEMBL4627246, “Pyroglutamide-Based P2X7 Receptor Antagonists Targeting Inflammatory Bowel Disease” (J Med Chem, 2020).

What follows are compounds tested on MDA-MB-231 (assay: Cytotoxicity against human MDA-MB-231 cells assessed as effect on cell growth at 10 uM incubated for 48 hrs by sulforhodamine B assay). Details: mda-mb-231, 48 h.
Format: cell-based

SMILES	Activity
CN(C)/C=C1\C[C@H]2C(=O)N(/C(=C/N(C)C)c3ccncc3)C(N(C)C)N2C1=O (stereo not given in full)	Non-Toxic
O=C(NCc1ccc(Cl)cc1Cl)[C@@H]1CCC(=O)N1c1ccc(Cl)cc1	Non-Toxic
O=C(NCc1ccc(Cl)cc1Cl)c1ccccn1	Non-Toxic

These compounds were tested on SK-MEL-5 (assay: Cytotoxicity against human SK-MEL-5 cells assessed as effect on cell growth at 10 uM incubated for 48 hrs by sulforhodamine B assay). Details: sk-mel-5, 48 h.
Format: cell-based

SMILES	Activity
CN(C)/C=C1\C[C@H]2C(=O)N(/C(=C/N(C)C)c3ccncc3)C(N(C)C)N2C1=O (stereo not given in full)	Non-Toxic
O=C(NCc1ccc(Cl)cc1Cl)[C@@H]1CCC(=O)N1c1ccc(Cl)cc1	Non-Toxic
O=C(NCc1ccc(Cl)cc1Cl)c1ccccn1	Non-Toxic

The compounds below were run on HOP-62 (assay: Cytotoxicity against human HOP62 cells assessed as effect on cell growth at 10 uM incubated for 48 hrs by sulforhodamine B assay). Details: hop-62, 48 h.
Format: cell-based

SMILES	Activity
CN(C)/C=C1\C[C@H]2C(=O)N(/C(=C/N(C)C)c3ccncc3)C(N(C)C)N2C1=O (stereo not given in full)	Non-Toxic
O=C(NCc1ccc(Cl)cc1Cl)[C@@H]1CCC(=O)N1c1ccc(Cl)cc1	Non-Toxic
O=C(NCc1ccc(Cl)cc1Cl)c1ccccn1	Non-Toxic

These compounds were tested on CCRF-CEM (assay: Cytotoxicity against human CCRF-CEM cells assessed as effect on cell growth at 10 uM incubated for 48 hrs by sulforhodamine B assay). Details: not given.
Format: cell-based

SMILES	Activity
CN(C)/C=C1\C[C@H]2C(=O)N(/C(=C/N(C)C)c3ccncc3)C(N(C)C)N2C1=O (stereo not given in full)	Non-Toxic
O=C(NCc1ccc(Cl)cc1Cl)[C@@H]1CCC(=O)N1c1ccc(Cl)cc1	Non-Toxic
O=C(NCc1ccc(Cl)cc1Cl)c1ccccn1	Non-Toxic

Each compound was assayed on OVCAR-4 (assay: Cytotoxicity against human OVCAR4 cells assessed as effect on cell growth at 10 uM incubated for 48 hrs by sulforhodamine B assay). Details: ovcar-4, 48 h.
Format: cell-based

SMILES	Activity
CN(C)/C=C1\C[C@H]2C(=O)N(/C(=C/N(C)C)c3ccncc3)C(N(C)C)N2C1=O (stereo not given in full)	Non-Toxic
O=C(NCc1ccc(Cl)cc1Cl)[C@@H]1CCC(=O)N1c1ccc(Cl)cc1	Non-Toxic
O=C(NCc1ccc(Cl)cc1Cl)c1ccccn1	Non-Toxic

Each compound was assayed on RXF 393 (assay: Cytotoxicity against human RXF393 cells assessed as effect on cell growth at 10 uM incubated for 48 hrs by sulforhodamine B assay). Details: rxf 393, 48 h.
Format: cell-based

SMILES	Activity
CN(C)/C=C1\C[C@H]2C(=O)N(/C(=C/N(C)C)c3ccncc3)C(N(C)C)N2C1=O (stereo not given in full)	Non-Toxic
O=C(NCc1ccc(Cl)cc1Cl)[C@@H]1CCC(=O)N1c1ccc(Cl)cc1	Non-Toxic
O=C(NCc1ccc(Cl)cc1Cl)c1ccccn1	Non-Toxic

These compounds were tested on K562 (assay: Cytotoxicity against human K562 cells assessed as effect on cell growth at 10 uM incubated for 48 hrs by sulforhodamine B assay). Details: k562, 48 h.
Format: cell-based

SMILES	Activity
CN(C)/C=C1\C[C@H]2C(=O)N(/C(=C/N(C)C)c3ccncc3)C(N(C)C)N2C1=O (stereo not given in full)	Non-Toxic
O=C(NCc1ccc(Cl)cc1Cl)[C@@H]1CCC(=O)N1c1ccc(Cl)cc1	Non-Toxic
O=C(NCc1ccc(Cl)cc1Cl)c1ccccn1	Non-Toxic

What follows are compounds tested on CAKI-1 (assay: Growth inhibition of human Caki1 cells assessed as growth percentage at 10 uM incubated for 48 hrs by sulforhodamine B assay). Details: caki-1, 48 h.
Format: cell-based

SMILES	Activity
CN(C)/C=C1\C[C@H]2C(=O)N(/C(=C/N(C)C)c3ccncc3)C(N(C)C)N2C1=O (stereo not given in full)	Non-Toxic
O=C(NCc1ccc(Cl)cc1Cl)[C@@H]1CCC(=O)N1c1ccc(Cl)cc1	Non-Toxic
O=C(NCc1ccc(Cl)cc1Cl)c1ccccn1	Non-Toxic

The compounds below were run on BT-549 (assay: Cytotoxicity against human BT549 cells assessed as effect on cell growth at 10 uM incubated for 48 hrs by sulforhodamine B assay). Details: bt-549, 48 h.
Format: cell-based

SMILES	Activity
CN(C)/C=C1\C[C@H]2C(=O)N(/C(=C/N(C)C)c3ccncc3)C(N(C)C)N2C1=O (stereo not given in full)	Non-Toxic
O=C(NCc1ccc(Cl)cc1Cl)[C@@H]1CCC(=O)N1c1ccc(Cl)cc1	Non-Toxic
O=C(NCc1ccc(Cl)cc1Cl)c1ccccn1	Non-Toxic

These compounds were tested on OVCAR-3 (assay: Cytotoxicity against human OVCAR3 cells assessed as effect on cell growth at 10 uM incubated for 48 hrs by sulforhodamine B assay). Details: ovcar-3, 48 h.
Format: cell-based

SMILES	Activity
CN(C)/C=C1\C[C@H]2C(=O)N(/C(=C/N(C)C)c3ccncc3)C(N(C)C)N2C1=O (stereo not given in full)	Non-Toxic
O=C(NCc1ccc(Cl)cc1Cl)[C@@H]1CCC(=O)N1c1ccc(Cl)cc1	Non-Toxic
O=C(NCc1ccc(Cl)cc1Cl)c1ccccn1	Non-Toxic

These compounds were tested on MDA-MB-435 (assay: Cytotoxicity against human MDA-MB-435 cells assessed as effect on cell growth at 10 uM incubated for 48 hrs by sulforhodamine B assay). Details: mda-mb-435, 48 h.
Format: cell-based

SMILES	Activity
CN(C)/C=C1\C[C@H]2C(=O)N(/C(=C/N(C)C)c3ccncc3)C(N(C)C)N2C1=O (stereo not given in full)	Non-Toxic
O=C(NCc1ccc(Cl)cc1Cl)[C@@H]1CCC(=O)N1c1ccc(Cl)cc1	Non-Toxic
O=C(NCc1ccc(Cl)cc1Cl)c1ccccn1	Non-Toxic

What follows are compounds tested on MCF7 (assay: Cytotoxicity against human MCF7 cells assessed as effect on cell growth at 10 uM incubated for 48 hrs by sulforhodamine B assay). Details: mcf7, 48 h.
Format: cell-based

SMILES	Activity
CN(C)/C=C1\C[C@H]2C(=O)N(/C(=C/N(C)C)c3ccncc3)C(N(C)C)N2C1=O (stereo not given in full)	Non-Toxic
O=C(NCc1ccc(Cl)cc1Cl)[C@@H]1CCC(=O)N1c1ccc(Cl)cc1	Non-Toxic
O=C(NCc1ccc(Cl)cc1Cl)c1ccccn1	Non-Toxic

Each compound was assayed on SK-MEL-2 (assay: Cytotoxicity against human SK-MEL-2 cells assessed as effect on cell growth at 10 uM incubated for 48 hrs by sulforhodamine B assay). Details: sk-mel-2, 48 h.
Format: cell-based

SMILES	Activity
CN(C)/C=C1\C[C@H]2C(=O)N(/C(=C/N(C)C)c3ccncc3)C(N(C)C)N2C1=O (stereo not given in full)	Non-Toxic
O=C(NCc1ccc(Cl)cc1Cl)[C@@H]1CCC(=O)N1c1ccc(Cl)cc1	Non-Toxic
O=C(NCc1ccc(Cl)cc1Cl)c1ccccn1	Non-Toxic

Each compound was assayed on SF-268 (assay: Cytotoxicity against human SF268 cells assessed as effect on cell growth at 10 uM incubated for 48 hrs by sulforhodamine B assay). Details: sf-268, 48 h.
Format: cell-based

SMILES	Activity
CN(C)/C=C1\C[C@H]2C(=O)N(/C(=C/N(C)C)c3ccncc3)C(N(C)C)N2C1=O (stereo not given in full)	Non-Toxic
O=C(NCc1ccc(Cl)cc1Cl)[C@@H]1CCC(=O)N1c1ccc(Cl)cc1	Non-Toxic
O=C(NCc1ccc(Cl)cc1Cl)c1ccccn1	Non-Toxic

Each compound was assayed on Hs-578T (assay: Cytotoxicity against human Hs 578T cells assessed as effect on cell growth at 10 uM incubated for 48 hrs by sulforhodamine B assay). Details: not given.
Format: cell-based

SMILES	Activity
CN(C)/C=C1\C[C@H]2C(=O)N(/C(=C/N(C)C)c3ccncc3)C(N(C)C)N2C1=O (stereo not given in full)	Non-Toxic
O=C(NCc1ccc(Cl)cc1Cl)[C@@H]1CCC(=O)N1c1ccc(Cl)cc1	Non-Toxic
O=C(NCc1ccc(Cl)cc1Cl)c1ccccn1	Non-Toxic

The compounds below were run on LOX IMVI (assay: Cytotoxicity against human LOXIMVI cells assessed as effect on cell growth at 10 uM incubated for 48 hrs by sulforhodamine B assay). Details: not given.
Format: cell-based

SMILES	Activity
CN(C)/C=C1\C[C@H]2C(=O)N(/C(=C/N(C)C)c3ccncc3)C(N(C)C)N2C1=O (stereo not given in full)	Non-Toxic
O=C(NCc1ccc(Cl)cc1Cl)[C@@H]1CCC(=O)N1c1ccc(Cl)cc1	Non-Toxic
O=C(NCc1ccc(Cl)cc1Cl)c1ccccn1	Non-Toxic

What follows are compounds tested on NCI-H226 (assay: Cytotoxicity against human NCI-H226 cells assessed as effect on cell growth at 10 uM incubated for 48 hrs by sulforhodamine B assay). Details: nci-h226, 48 h.
Format: cell-based

SMILES	Activity
CN(C)/C=C1\C[C@H]2C(=O)N(/C(=C/N(C)C)c3ccncc3)C(N(C)C)N2C1=O (stereo not given in full)	Non-Toxic
O=C(NCc1ccc(Cl)cc1Cl)[C@@H]1CCC(=O)N1c1ccc(Cl)cc1	Non-Toxic
O=C(NCc1ccc(Cl)cc1Cl)c1ccccn1	Non-Toxic

What follows are compounds tested on SK-MEL-28 (assay: Cytotoxicity against human SK-MEL-28 cells assessed as effect on cell growth at 10 uM incubated for 48 hrs by sulforhodamine B assay). Details: sk-mel-28, 48 h.
Format: cell-based

SMILES	Activity
CN(C)/C=C1\C[C@H]2C(=O)N(/C(=C/N(C)C)c3ccncc3)C(N(C)C)N2C1=O (stereo not given in full)	Non-Toxic
O=C(NCc1ccc(Cl)cc1Cl)[C@@H]1CCC(=O)N1c1ccc(Cl)cc1	Non-Toxic
O=C(NCc1ccc(Cl)cc1Cl)c1ccccn1	Non-Toxic

These compounds were tested on SN12C (assay: Cytotoxicity against human SN12C cells assessed as effect on cell growth at 10 uM incubated for 48 hrs by sulforhodamine B assay). Details: not given.
Format: cell-based

SMILES	Activity
CN(C)/C=C1\C[C@H]2C(=O)N(/C(=C/N(C)C)c3ccncc3)C(N(C)C)N2C1=O (stereo not given in full)	Non-Toxic
O=C(NCc1ccc(Cl)cc1Cl)[C@@H]1CCC(=O)N1c1ccc(Cl)cc1	Non-Toxic
O=C(NCc1ccc(Cl)cc1Cl)c1ccccn1	Non-Toxic

Each compound was assayed on UACC-257 (assay: Cytotoxicity against human UACC257 cells assessed as effect on cell growth at 10 uM incubated for 48 hrs by sulforhodamine B assay). Details: uacc-257, 48 h.
Format: cell-based

SMILES	Activity
CN(C)/C=C1\C[C@H]2C(=O)N(/C(=C/N(C)C)c3ccncc3)C(N(C)C)N2C1=O (stereo not given in full)	Non-Toxic
O=C(NCc1ccc(Cl)cc1Cl)[C@@H]1CCC(=O)N1c1ccc(Cl)cc1	Non-Toxic
O=C(NCc1ccc(Cl)cc1Cl)c1ccccn1	Non-Toxic
